Data reported in US6630447B2, “Peptide inhibitors of LFA-1/ICAM-1 interaction” (University of New Mexico, priority 2000, dated 2003).
Read-outs that look alike come from different tables or passages of the source. Bridge positions count the residues as written; N and C are the ends. Peptide text beside a SMILES is read from it.

What was measured:
[1] = tested on: LFA-1/ICAM-1 mediated JY cell aggregation; type: cell-based; conditions: for Percent Inhibition: (1 − (Observed/Max) × 100); for Percent Inhibition / Percent JY Aggregation: (SD) in parentheses; for Inhibition of LFA-1/ICAM-1 mediated JY cell aggregation compared to SEQ ID NO: 1 (in words): substituted derivatives of the consensus peptide
Method: LFA-1 dependent cell aggregation has been previously studied using an aggregation assay it with a variety of leukocyte subclasses and cell lines (Larson et al., 1990; Wang et al., 1988; Larson et al., 1997). JY cells were obtained form American Type Tissue Culture Collection and were maintained in RPMI 1640 supplemented with 10% FBS at 37° C. in 5% CO2. Aggregation of cells was measured in a homotypic aggregation assay using ICAM-1 as a stimuli. JY cells were washed twice with serum free medium and resuspended at a concentration of 4×10^5 is cells/ml. Cells were preincubated with the desired concentration of peptide for 15 min at room temperature. In a final volume of 100 μl, 50 μl of cells and peptide were seeded in 96 well flat bottomed microtiter plates. Cells were allowed to aggregate at 37° C. in humidified air with 5% CO2. Cells were visualized and counted by inverted phase contrast microscopy at the time indicated. Within each well of aggregates as well as the total number of free (single) cells were counted. percent aggregation was determined by the following equation:
Percent aggregation=100×(1−number of free cells/total number of cells)
The consensus peptide (SEQ ID NO: 1) and the randomized sequence CLMIRMLRC (SEQ ID NO: 33), cyclizied in the disulfide-linked form, were synthesized by Biopeptide (San Diego, Calif.) and tested in a screening assay for the ability to inhibit aggregation of the cell line JY, which aggregates in an LFA-1/CAM-1 dependent manner. Aggregation measurements are relatively rapid and quantifiable. Furthermore, small volumes are used minimizing peptide consumption. Finally, cell aggregation in vitro depends on a multivalent LFA-1/ICAM-1 interaction. A peptide that is identified as being able to block cell aggregation in vitro is, therefore, likely to have affinity and off-rate characteristics that would make it an effective in vivo inhibitor, since cell—cell interaction in vivo also involves multivalent LFA-1/ICAM-1 interaction. Using this assay, the consensus peptide sequence has an IC50 of 500 μM (FIG. 1).
Peptides are initially tested for their ability to block LFA-1/ICAM dependent aggregation of the cell line JY (Wang et al., 1988; Larson et al., 1997). Peptides are preferably tested over a range of concentrations ([…], for example) and the concentration leading to half maximal inhibition of aggregation (IC50) is determined for all the peptide sequences.

[2] = Solubility of peptides in aqueous solution; type: physicochemical
Excerpt: An alternative derivative peptide strategy was undertaken in which the consensus sequence peptide was subjected to an alanine-screening procedure as described by Cunningham and Wells, 1989. Peptides cyclizied in the disulfide-linked form were synthesized by Biopeptide (San Diego, Calif.) wherein an alanine was substituted at each position in the hepatapeptide LLRMRSI of the consensus sequence SEQ ID NO: 1, and each peptide was examined in parallel for its ability to inhibit LFA-1/ICAM-1 mediated JY cell aggregation. Six of the seven peptides were soluble in aqueous solution. SEQ ID NO: 376, representing a substitution of the arginine in position 4 of SEQ ID NO: 1, was not soluble at […] and could not be tested. […] The randomized sequence CLRLSRIMC (SEQ ID NO: 56) was used as a control.

[3] = tested on: neutrophil binding to stimulated endothelial cells; test: Firm attachment of neutrophils to stimulated endothelial cells in a parallel plate flow chamber; type: cell-based, human; conditions: for Percent Inhibition of firm attachment of neutrophils: (1 − (Observed/Maximum)) × 100; for Percent Inhibition of firm attachment of neutrophils / Firmly attached neutrophils, Cells/mm^2: (SD) in parentheses; for Neutrophil-binding to endothelium (in words): physiologic flow conditions; for Firmly attached neutrophils, Cells/mm^2: physiologic flow
Excerpt: An assay has been developed that provides an in vitro model of neutrophils or APL cells binding to activated endothelium. The binding of APL cells using a parallel plate flow chamber recapitulates events that occur in retinoic acid syndrome (Larson et al., 1997; Brown et al., 1999). A parallel plate flow chamber simulates the physiologic flow conditions in blood and adhesive interactions in post-capillary venules. Post-capillary venules are the physiologically relevant locations of leukemia cell-endothelial cell interaction and extravasation. […] Monolayers of endothelial cells are placed in the parallel plate flow chamber, and the leukemic cells are pumped through the chamber at physiologic flow rates. The interaction between the flowing leukemia cells and the endothelium are videotaped microscopically, and the number of rolling, firmly adhered and transmigrated leukemia cells is quantified by computer-assisted image analysis.
For investigating neutrophil binding, neutrophils are isolated from heparin anticoagulated venous blood of healthy adult donors by centrifugation on Ficoll-Hypaque density gradients as described by Simon et al. (1992). Isolated neutrophils are suspended at a concentration of 10^7/ml in Hanks' Balanced Salt Solution supplemented with 10 mmol/L HEPES, pH 7.4 and 0.2% human serum albumin (Armour Pharmaceutical, Kankakee, Ill.) and used within 2 hours of preparation. Neutrophils are kept on ice and resuspended in RPMi pre-warmed to 37° C. immediately before use.

[4] = Table 4, homologous amino acid substitutions
[5] = Table 3, alanine-substituted derivations

| Compound | Percent Inhibition ([1]; Table 4, JY cell aggregation) | Percent JY Aggregation [1, 4] | Inhibition of LFA-1/ICAM-1 mediated JY cell aggregation compared to SEQ ID NO: 1 (in words) [1] | Percent Inhibition ([1]; Table 3, JY cell aggregation) | Percent JY Aggregation [1, 5] | other results |
| --- | --- | --- | --- | --- | --- | --- |
| CVLRMRSAC (OTHER INFORMATION: Description of Artificial Sequence:Synthetic) [SEQ ID NO: 42] | 56(6) Percent | 24(3) Percent |  |  |  |  |
| CC[C@H](C)[C@@H]1NC(=O)[C@H](CCCNC(=N)N)NC(=O)[C@H](CO)NC(=O)[C@H](CC(C)C)NC(=O)[C@H](CCCNC(=N)N)NC(=O)[C@H](CC(C)C)NC(=O)[C@@H](N)CSSC[C@@H](C(=O)O)NC(=O)[C@H](CCSC)NC1=O [SEQ ID NO: 56, CLRLSRIMC, reference compound] (H-CLRLSRIMC-OH; disulfide 1-9 (inferred)) |  |  |  |  |  | Aqueous solubility relative to randomized sequence SEQ ID NO: 33 [2]: greater aqueous solubility |
| CLIRMRSAC (OTHER INFORMATION: Description of Artificial Sequence:Synthetic) [SEQ ID NO: 44] | 93(3) Percent | 4(2) Percent | greater inhibition |  |  |  |
| CLLRMRSLC (OTHER INFORMATION: Description of Artificial Sequence:Synthetic) [SEQ ID NO: 47] | −12(13) Percent | 61(7) Percent |  |  |  |  |
| CLLRMKSAC (OTHER INFORMATION: Description of Artificial Sequence:Synthetic) [SEQ ID NO: 46] | 90(4) Percent | 6(2) Percent | greater inhibition |  |  | Percent Inhibition of firm attachment of neutrophils [3]: 66(0) Percent; Inhibition of attachment of neutrophils to activated endothelium compared to SEQ ID NO: 1 (in words) ([3]; parallel plate flow chamber): greater inhibition; Neutrophil-binding to endothelium (in words) ([3]; parallel plate flow chamber): block; Firmly attached neutrophils, Cells/mm^2 [3]: 283(0) Cells/mm^2 |
| CILRMRSAC (OTHER INFORMATION: Description of Artificial Sequence:Synthetic) [SEQ ID NO: 43] | 92(9) Percent | 4(5) Percent | greater inhibition |  |  |  |
| CLMIRMLRC (OTHER INFORMATION: Description of Artificial Sequence:Synthetic) [SEQ ID NO: 33, reference compound] |  |  |  |  |  | Aggregation of JY cells (FIG. 1, in words) ([1]; concentration of 1 mM): ineffective |
| CLLKMRSAC (OTHER INFORMATION: Description of Artificial Sequence:Synthetic) [SEQ ID NO: 45] | 94(3) Percent | 3(2) Percent | greater inhibition |  |  |  |
| CLLRMASIC (OTHER INFORMATION: Description of Artificial Sequence:Synthetic) [SEQ ID NO: 38] |  |  | Loss of inhibitory function | 11(12) Percent | 68(9) Percent |  |
| CLLRMRAIC (OTHER INFORMATION: Description of Artificial Sequence:Synthetic) [SEQ ID NO: 39] |  |  | no significant effect | 27(21) Percent | 56(16) Percent |  |
| CLARMRSIC (OTHER INFORMATION: Description of Artificial Sequence:Synthetic) [SEQ ID NO: 35] |  |  | Loss of inhibitory function | 9(22) Percent | 69(17) Percent |  |
| CC[C@H](C)[C@@H]1NC(=O)[C@H](CO)NC(=O)[C@H](CCCNC(=N)N)NC(=O)[C@H](CCSC)NC(=O)[C@H](CCCNC(=N)N)NC(=O)[C@H](CC(C)C)NC(=O)[C@H](CC(C)C)NC(=O)[C@@H](N)CSSC[C@@H](C(=O)O)NC1=O [SEQ ID NO: 1, CLLRMRSIC] (H-CLLRMRSIC-OH; disulfide 1-9) | 45(9) Percent | 30(5) Percent |  | 46(11) Percent | 41(8) Percent | Percent Inhibition of firm attachment of neutrophils [3]: 47(15) Percent; Neutrophil-binding to endothelium (in words) ([3]; parallel plate flow chamber): block; Firmly attached neutrophils, Cells/mm^2 [3]: 439(120) Cells/mm^2; Aggregation of JY cells (FIG. 1, in words) ([1]; titration of 100 μM to 1 mM): inhibited |
| CC[C@H](C)[C@@H]1NC(=O)[C@H](CO)NC(=O)[C@H](CCCNC(=N)N)NC(=O)[C@H](CCSC)NC(=O)[C@H](C)NC(=O)[C@H](CC(C)C)NC(=O)[C@H](CC(C)C)NC(=O)[C@@H](N)CSSC[C@@H](C(=O)O)NC1=O [SEQ ID NO: 36, CLLAMRSIC] (H-CLLAMRSIC-OH; disulfide 1-9) |  |  | Loss of inhibitory function |  |  | Solubility in aqueous solution ([2]; at 1 nm): Not Soluble |
| CLLRARSIC (OTHER INFORMATION: Description of Artificial Sequence:Synthetic) [SEQ ID NO: 37] |  |  | Loss of inhibitory function | 5(14) Percent | 72(11) Percent |  |
| CLLRMRSAC (OTHER INFORMATION: Description of Artificial Sequence:Synthetic) [SEQ ID NO: 40] |  |  | more potent antagonist | 61(17) Percent | 29(13) Percent |  |
| CLLRMRSVC (OTHER INFORMATION: Description of Artificial Sequence:Synthetic) [SEQ ID NO: 48] | 92(3) Percent | 4(1) Percent | greater inhibition |  |  |  |
| CALRMRSIC (OTHER INFORMATION: Description of Artificial Sequence:Synthetic) [SEQ ID NO: 34] |  |  | Loss of inhibitory function | 7(19) Percent | 71(15) Percent |  |
| CLVRMRSAC (OTHER INFORMATION: Description of Artificial Sequence:Synthetic) [SEQ ID NO: 41] | 0(1) Percent | 55(1) Percent |  |  |  |  |
